Assays:
Assay in all cases: relative viability (nuclei count vs DMSO), 5 days (fraction); higher = more cells survive
XMD14-99 + Bortezomib = compound: CN1CCN(CC1)C2=CC(=C(C=C2)NC3=NC(=C(S3)C(=O)C4=C(C=CC=C4Cl)Cl)N)OC [XMD14-99] + CC(C)C[C@H](NC(=O)[C@H](Cc1ccccc1)NC(=O)c1cnccn1)B(O)O [Bortezomib] (partner 0.002 µM)
In short: (§1)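 Relative viability divides the nuclei count in treated wells by that in vehicle wells. Lung cancer cell lines were seeded in 1536-well plates, dosed by pin tool the next day, and fixed and stained after 5 days in one step with final 0.05% Triton X-100, 1% formaldehyde and 1 ug/ml Hoechst. Dosing was a single drug or a fixed anchor-drug dose plus five library-drug doses (not always all listed) in √10 steps, and values are medians of duplicate plates imaged at 4×.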

XMD14-99 + Vorinostat = compound: CN1CCN(CC1)C2=CC(=C(C=C2)NC3=NC(=C(S3)C(=O)C4=C(C=CC=C4Cl)Cl)N)OC [XMD14-99] + O=C(CCCCCCC(=O)Nc1ccccc1)NO [Vorinostat] (partner 1 µM)
In short: as §1

AZD1208 + Phenformin = compound: N[C@@H]1CCCN(c2c(/C=C3\SC(=O)NC3=O)cccc2-c2ccccc2)C1 [AZD1208] + N=C(N)NC(=N)NCCc1ccccc1 [Phenformin] (partner 250 µM)
In short: as §1

AZD1208 + AZD7762 = compound: N[C@@H]1CCCN(c2c(/C=C3\SC(=O)NC3=O)cccc2-c2ccccc2)C1 [AZD1208] + NC(=O)Nc1cc(-c2cccc(F)c2)sc1C(=O)N[C@H]1CCCNC1 [AZD7762] (partner 0.2 µM)
In short: as §1

Cell Line | relative viability (XMD14-99 + Bortezomib; first compound 0.08 µM) | relative viability (XMD14-99 + Bortezomib; first compound 0.8 µM) | relative viability (XMD14-99 + Bortezomib; first compound 2.53 µM) | relative viability (XMD14-99 + Bortezomib; first compound 8 µM) | relative viability (XMD14-99 + Vorinostat; first compound 0.08 µM) | relative viability (XMD14-99 + Vorinostat; first compound 0.8 µM) | relative viability (XMD14-99 + Vorinostat; first compound 2.53 µM) | relative viability (XMD14-99 + Vorinostat; first compound 8 µM) | relative viability (AZD1208 + Phenformin; first compound 0.08 µM) | relative viability (AZD1208 + Phenformin; first compound 0.253 µM) | relative viability (AZD1208 + Phenformin; first compound 0.8 µM) | relative viability (AZD1208 + Phenformin; first compound 2.53 µM) | relative viability (AZD1208 + Phenformin; first compound 8 µM) | relative viability (AZD1208 + AZD7762; first compound 0.08 µM) | relative viability (AZD1208 + AZD7762; first compound 0.253 µM) | relative viability (AZD1208 + AZD7762; first compound 0.8 µM) | relative viability (AZD1208 + AZD7762; first compound 2.53 µM) | relative viability (AZD1208 + AZD7762; first compound 8 µM)
CAL-12T | 1.07 | 0.954 | 0.899 | 0.634 | 0.685 | 0.894 | 0.627 | 0.613 | 0.517 | 0.698 | 0.557 | 0.522 | 0.576 | 0.621 | 0.624 | 0.621 | 0.596 | 0.905
NCI-H596 | 0.962 | 1.07 | 1.07 | 0.797 | 0.635 | 0.645 | 0.794 | 0.536 | 0.674 | 1.01 | 0.689 | 0.668 | 0.477 | 1.17 | 1.07 | 1.01 | 1.01 | 0.666
NCI-H1755 | 0.854 | 0.947 | 0.859 | 0.795 | 0.661 | 0.742 | 0.686 | 0.608 | 0.586 | 0.616 | 0.623 | 0.593 | 0.502 | 0.509 | 0.577 | 0.455 | 0.446 | 0.448
NCI-H2085 | 1.13 | 1.03 | 0.954 | 0.745 | 0.768 | 0.788 | 0.768 | 0.613 | 0.679 | 0.677 | 0.675 | 0.688 | 0.668 | 1 | 1.13 | 0.911 | 0.892 | 1.04

Reference: the supplement of paper PMC10307832
